{"source": "PubChem BioAssay (NCI)", "test_in_all_cases": "growth of human tumour cells (NCI), 48 h", "key": {"[1]": {"tested_on": "BT-549 breast"}, "[2]": {"tested_on": "DU-145 prostate"}, "[3]": {"tested_on": "HS 578T breast"}, "[4]": {"tested_on": "A498 renal"}, "[5]": {"tested_on": "CAKI-1 renal"}, "[6]": {"tested_on": "HL-60(TB) leukemia"}, "[7]": {"tested_on": "UACC-62 melanoma"}, "[8]": {"tested_on": "HCC-2998 colon"}, "[9]": {"tested_on": "NCI-H522 lung"}, "[10]": {"tested_on": "NCI-H460 lung"}, "[11]": {"tested_on": "TK-10 renal"}, "[12]": {"tested_on": "COLO 205 colon"}, "[13]": {"tested_on": "U251 CNS"}, "[14]": {"tested_on": "HCT-15 colon"}, "[15]": {"tested_on": "MDA-MB-231 breast"}, "[16]": {"tested_on": "OVCAR-4 ovarian"}, "[17]": {"tested_on": "NCI-H226 lung"}, "[18]": {"tested_on": "MDA-MB-435"}, "[19]": {"tested_on": "SN12C renal"}, "[20]": {"tested_on": "SNB-19 CNS"}, "[21]": {"tested_on": "RPMI-8226 leukemia"}, "[22]": {"tested_on": "SK-MEL-5 melanoma"}, "[23]": {"tested_on": "SW-620 colon"}, "[24]": {"tested_on": "OVCAR-8 ovarian"}, "[25]": {"tested_on": "IGROV1 ovarian"}, "[26]": {"tested_on": "SNB-75 CNS"}, "[27]": {"tested_on": "CCRF-CEM leukemia"}, "[28]": {"tested_on": "LOX IMVI melanoma"}, "[29]": {"tested_on": "SR leukemia"}, "[30]": {"tested_on": "MALME-3M melanoma"}, "[31]": {"tested_on": "HT29 colon"}, "[32]": {"tested_on": "SF-539 CNS"}, "[33]": {"tested_on": "786-0 renal"}, "[34]": {"tested_on": "RXF 393 renal"}, "[35]": {"tested_on": "NCI/ADR-RES ovarian"}, "[36]": {"tested_on": "M14 melanoma"}, "[37]": {"tested_on": "SK-MEL-2 melanoma"}, "[38]": {"tested_on": "EKVX NSCLC"}, "[39]": {"tested_on": "SK-MEL-28 melanoma"}, "[40]": {"tested_on": "OVCAR-5 ovarian"}, "[41]": {"tested_on": "KM12 colon"}, "[42]": {"tested_on": "SF-268 CNS"}, "[43]": {"tested_on": "PC-3 prostate"}, "[44]": {"tested_on": "T-47D breast"}, "[45]": {"tested_on": "HCT-116 colon"}, "[46]": {"tested_on": "MDA-N"}, "[47]": {"tested_on": "K-562 leukemia"}, "[48]": {"tested_on": "UO-31 renal"}, "[49]": {"tested_on": "NCI-H23 lung"}, "[50]": {"tested_on": "MCF7 breast"}, "[51]": {"tested_on": "A549 NSCLC"}, "[52]": {"tested_on": "UACC-257 melanoma"}, "[53]": {"tested_on": "ACHN renal"}, "[54]": {"tested_on": "MOLT-4 leukemia"}, "[55]": {"tested_on": "HOP-92 NSCLC"}}, "note": "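96-well plates; 48 h exposure; 5 concentrations. Endpoints by linear interpolation between flanking doses. Not reached: highest tested concentration assigned. At the TGI there is no net growth.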", "data": [{"smiles": "CC1=NN(c2cc(Cl)c(S(=O)(=O)O)cc2Cl)C2(C1)C(Cl)C(=O)N2c1nc2ccccc2s1", "note": "(stereo not given)", "values": [{"measurement": "TGI", "setting": "[1]", "result": "> 100", "unit": "µM"}, {"measurement": "TGI", "setting": "[2]", "result": "> 100", "unit": "µM"}, {"measurement": "TGI", "setting": "[3]", "result": "> 100", "unit": "µM"}, {"measurement": "TGI", "setting": "[4]", "result": "> 100", "unit": "µM"}, {"measurement": "TGI", "setting": "[5]", "result": "> 100", "unit": "µM"}, {"measurement": "TGI", "setting": "[6]", "result": "> 100", "unit": "µM"}, {"measurement": "TGI", "setting": "[7]", "result": "> 100", "unit": "µM"}, {"measurement": "TGI", "setting": "[8]", "result": "> 100", "unit": "µM"}, {"measurement": "TGI", "setting": "[9]", "result": 71.2, "unit": "µM"}, {"measurement": "TGI", "setting": "[10]", "result": "> 100", "unit": "µM"}, {"measurement": "TGI", "setting": "[11]", "result": "> 100", "unit": "µM"}, {"measurement": "TGI", "setting": "[12]", "result": "> 100", "unit": "µM"}, {"measurement": "TGI", "setting": "[13]", "result": "> 100", "unit": "µM"}, {"measurement": "TGI", "setting": "[14]", "result": "> 100", "unit": "µM"}, {"measurement": "TGI", "setting": "[15]", "result": "> 100", "unit": "µM"}, {"measurement": "TGI", "setting": "[16]", "result": "> 100", "unit": "µM"}, {"measurement": "TGI", "setting": "[17]", "result": "> 100", "unit": "µM"}, {"measurement": "TGI", "setting": "[18]", "result": "> 100", "unit": "µM"}, {"measurement": "TGI", "setting": "[19]", "result": "> 100", "unit": "µM"}, {"measurement": "TGI", "setting": "[20]", "result": "> 100", "unit": "µM"}, {"measurement": "TGI", "setting": "[21]", "result": "> 100", "unit": "µM"}, {"measurement": "TGI", "setting": "[22]", "result": "> 100", "unit": "µM"}, {"measurement": "TGI", "setting": "[23]", "result": "> 100", "unit": "µM"}, {"measurement": "TGI", "setting": "[24]", "result": "> 100", "unit": "µM"}, {"measurement": "TGI", "setting": "[25]", "result": "> 100", "unit": "µM"}, {"measurement": "TGI", "setting": "[26]", "result": "> 100", "unit": "µM"}, {"measurement": "TGI", "setting": "[27]", "result": "> 100", "unit": "µM"}, {"measurement": "TGI", "setting": "[28]", "result": "> 100", "unit": "µM"}, {"measurement": "TGI", "setting": "[29]", "result": "> 100", "unit": "µM"}, {"measurement": "TGI", "setting": "[30]", "result": "> 100", "unit": "µM"}, {"measurement": "TGI", "setting": "[31]", "result": "> 100", "unit": "µM"}, {"measurement": "TGI", "setting": "[32]", "result": "> 100", "unit": "µM"}, {"measurement": "TGI", "setting": "[33]", "result": "> 100", "unit": "µM"}, {"measurement": "TGI", "setting": "[34]", "result": "> 100", "unit": "µM"}, {"measurement": "TGI", "setting": "[35]", "result": "> 100", "unit": "µM"}, {"measurement": "TGI", "setting": "[36]", "result": "> 100", "unit": "µM"}, {"measurement": "TGI", "setting": "[37]", "result": "> 100", "unit": "µM"}, {"measurement": "TGI", "setting": "[38]", "result": "> 100", "unit": "µM"}, {"measurement": "TGI", "setting": "[39]", "result": "> 100", "unit": "µM"}, {"measurement": "TGI", "setting": "[40]", "result": "> 100", "unit": "µM"}, {"measurement": "TGI", "setting": "[41]", "result": "> 100", "unit": "µM"}, {"measurement": "TGI", "setting": "[42]", "result": "> 100", "unit": "µM"}, {"measurement": "TGI", "setting": "[43]", "result": "> 100", "unit": "µM"}, {"measurement": "TGI", "setting": "[44]", "result": "> 100", "unit": "µM"}, {"measurement": "TGI", "setting": "[45]", "result": "> 100", "unit": "µM"}, {"measurement": "TGI", "setting": "[46]", "result": "> 100", "unit": "µM"}, {"measurement": "TGI", "setting": "[47]", "result": "> 100", "unit": "µM"}, {"measurement": "TGI", "setting": "[48]", "result": 76.5, "unit": "µM"}, {"measurement": "TGI", "setting": "[49]", "result": "> 100", "unit": "µM"}, {"measurement": "TGI", "setting": "[50]", "result": "> 100", "unit": "µM"}, {"measurement": "TGI", "setting": "[51]", "result": "> 100", "unit": "µM"}, {"measurement": "TGI", "setting": "[52]", "result": "> 100", "unit": "µM"}, {"measurement": "TGI", "setting": "[53]", "result": "> 100", "unit": "µM"}, {"measurement": "TGI", "setting": "[54]", "result": "> 100", "unit": "µM"}, {"measurement": "TGI", "setting": "[55]", "result": "> 100", "unit": "µM"}]}]}
